Test results from the supplement of paper PMC10307832.

Columns and labels:
Test in all cases: relative viability (nuclei count vs DMSO), 5 days (fraction); higher = more cells survive
VE-821 = compound: CS(=O)(=O)c1ccc(-c2cnc(N)c(C(=O)Nc3ccccc3)n2)cc1 [VE-821]
In short: (§1)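 MetaXpress counted nuclei in 4× images of lung cancer cell lines that had been fixed, permeabilised and Hoechst-stained in one step. Before that, cells in 1536-well plates were kept overnight at 37 °C, pinned with five √10-spaced library-drug doses on vehicle-anchored plates, and cultured 5 days without medium change. Viability takes treated-well nuclei over vehicle-well nuclei and uses the median across plates. Plates were accepted only at control CV below 25% and at least one doubling.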

Vismodegib = compound: CS(=O)(=O)c1ccc(C(=O)Nc2ccc(Cl)c(-c3ccccn3)c2)c(Cl)c1 [Vismodegib]
In short: as §1

Ruxolitinib = compound: N#CC[C@H](C1CCCC1)n1cc(-c2ncnc3[nH]ccc23)cn1 [Ruxolitinib]
In short: as §1

Row | Cell Line | relative viability (VE-821; 0.08 µM) | relative viability (VE-821; 0.253 µM) | relative viability (VE-821; 0.8 µM) | relative viability (VE-821; 2.53 µM) | relative viability (VE-821; 8 µM) | relative viability (Vismodegib; 0.08 µM) | relative viability (Vismodegib; 0.253 µM) | relative viability (Vismodegib; 0.8 µM) | relative viability (Vismodegib; 2.53 µM) | relative viability (Vismodegib; 8 µM) | relative viability (Ruxolitinib; 0.08 µM) | relative viability (Ruxolitinib; 0.253 µM) | relative viability (Ruxolitinib; 0.8 µM) | relative viability (Ruxolitinib; 2.53 µM) | relative viability (Ruxolitinib; 8 µM)
1 | NCI-H2023 | 1.1 | 0.874 | 0.672 | 0.494 | 0.172 | 0.925 | 0.892 | 0.95 | 1.06 | 0.98 | 1.03 | 0.835 | 1.18 | 0.9 | 0.988
2 | NCI-H2085 | 1.03 | 0.973 | 0.843 | 1.14 | 0.946 | 0.977 | 0.995 | 0.994 | 0.997 | 0.937 | 1.03 | 1.01 | 1.09 | 0.901 | 0.876
3 | NCI-H2087 | 1.16 | 0.871 | 0.958 | 1.32 | 1.05 | 0.946 | 0.969 | 0.941 | 1.09 | 0.906 | 1.04 | 0.957 | 1.12 | 0.935 | 0.941
4 | NCI-H2126 | 1.02 | 0.924 | 0.966 | 0.96 | 0.729 | 0.994 | 0.962 | 0.949 | 0.968 | 0.927 | 1 | 1.02 | 1.09 | 1.12 | 0.986
5 | NCI-H2170 | 0.972 | 0.932 | 1.01 | 0.966 | 0.642 | 1.03 | 0.959 | 1.01 | 0.955 | 0.993 | 1.05 | 0.975 | 1 | 0.924 | 0.841
6 | NCI-H2228 | 0.938 | 1.03 | 0.806 | 1.27 | 0.728 | 1.07 | 1.13 | 1.04 | 0.889 | 0.89 | 0.764 | 0.964 | 1.3 | 0.809 | 0.737
7 | NCI-H2342 | 1 | 0.957 | 0.939 | 0.998 | 0.807 | 0.882 | 1.07 | 0.984 | 0.742 | 0.931 | 0.981 | 0.827 | 1.09 | 1.02 | 0.964
8 | NCI-H2347 | 1.1 | 0.968 | 1.01 | 1.22 | 1.14 | 0.908 | 0.995 | 0.949 | 0.968 | 1.04 | 0.949 | 0.984 | 1.11 | 1.01 | 0.942
9 | NCI-H2405 | 1.06 | 0.968 | 0.968 | 1.09 | 0.993 | 0.96 | 1.06 | 0.927 | 0.991 | 1.03 | 0.715 | 0.974 | 0.999 | 0.938 | 0.52
10 | NCI-H3122 | 1.02 | 1.01 | 0.982 | 1.01 | 0.933 | 0.962 | 1.01 | 0.904 | 0.973 | 0.92 | 0.986 | 1.03 | 1.01 | 0.868 | 0.915
11 | PC-3 [JPC-3] | 1.03 | 1.07 | 1.07 | 1.06 | 0.971 | 0.977 | 0.999 | 0.986 | 1.02 | 0.986 | 0.818 | 0.941 | 1.02 | 1.03 | 0.908
12 | PC-14 | 1.06 | 0.932 | 0.995 | 0.969 | 0.686 | 0.958 | 0.959 | 0.988 | 0.915 | 0.952 |  | 1.07 | 1.01 | 0.865 | 0.8
13 | RERF-LC-KJ | 0.986 | 0.916 | 0.878 | 0.923 | 0.786 | 1.03 | 0.967 | 1.03 | 0.973 | 1.04 | 0.969 | 0.933 | 1.06 | 1.01 | 0.965
14 | SK-LU-1 | 1.08 | 1.06 | 0.942 | 0.841 | 0.569 | 1 | 0.997 | 1.07 | 0.943 | 1.04 | 1.01 | 1.08 | 1.12 | 0.966 | 0.907
15 | SK-MES-1 | 1.03 | 0.955 | 0.905 | 0.933 | 0.809 | 0.964 | 0.997 | 1.01 | 0.986 | 1.04 | 1.04 | 0.967 | 1.02 | 0.846 | 0.725
16 | SW 900 | 1.01 | 0.793 | 0.763 | 0.748 | 0.537 | 0.982 | 0.879 | 0.737 | 0.655 | 0.93 | 0.991 | 1.02 | 1.03 | 1.02 | 0.896
17 | SW 1573 | 1.1 | 1.04 | 1.02 | 1.06 | 0.788 | 0.969 | 0.931 | 1.05 | 0.959 | 0.985 | 1.02 | 0.929 | 1.14 | 0.865 | 0.85
